Reference: ChEMBL document CHEMBL3102744, “Inhibition of tyrosinase activity by polyphenol compounds from Flemingia philippinensis roots” (Bioorg Med Chem, 2014)
Calls of active or inactive are those of the source. No cut-off for these calls is given here.

Legend:
Tyrosinase [1] = target: T1, Tyrosinase (Agaricus bisporus, UniProt O42713); test: Competitive inhibition of mushroom tyrosinase using L-tyrosine as substrate preincubated for 10 mins with substrate followed by enzyme addition measured after 15 mins by Dixon plot analysis
T1 sequence (O42713 whole entry): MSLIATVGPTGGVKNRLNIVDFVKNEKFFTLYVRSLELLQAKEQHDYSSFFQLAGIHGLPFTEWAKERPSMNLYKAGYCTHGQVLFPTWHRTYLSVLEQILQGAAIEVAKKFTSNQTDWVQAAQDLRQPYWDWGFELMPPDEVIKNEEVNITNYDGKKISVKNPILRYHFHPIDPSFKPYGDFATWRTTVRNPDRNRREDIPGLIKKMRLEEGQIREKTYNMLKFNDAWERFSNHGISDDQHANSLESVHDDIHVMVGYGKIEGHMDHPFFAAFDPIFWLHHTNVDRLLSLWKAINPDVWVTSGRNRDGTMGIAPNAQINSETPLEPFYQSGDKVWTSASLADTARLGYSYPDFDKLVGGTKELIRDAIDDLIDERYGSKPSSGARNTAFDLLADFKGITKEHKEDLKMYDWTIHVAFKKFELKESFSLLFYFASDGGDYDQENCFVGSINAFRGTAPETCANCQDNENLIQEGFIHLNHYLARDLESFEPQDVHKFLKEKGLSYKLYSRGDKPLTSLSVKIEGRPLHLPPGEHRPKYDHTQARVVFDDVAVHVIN

Tyrosinase [2] = target: T1, Tyrosinase; test: Inhibition of mushroom tyrosinase using L-DOPA as substrate preincubated for 10 mins with substrate followed by enzyme addition measured after 15 mins by spectrophotometry
Tyrosinase [3] = target: T1, Tyrosinase; test: Competitive inhibition of mushroom tyrosinase using L-DOPA as substrate preincubated for 10 mins with substrate followed by enzyme addition measured after 15 mins by Dixon plot analysis
[4] = target: T2, Tyrosinase (Agaricus bisporus) (UniProt O42713); test: (§1) Inhibition of mushroom tyrosinase using L-tyrosine as substrate preincubated for 10 mins with substrate followed by enzyme addition measured after 15 mins by spectrophotometry
T2 sequence (whole entry): T1 sequence (O42713 whole entry)

Tyrosinase [5] = target: T1, Tyrosinase; test: as §1
[6] = target: T2, Tyrosinase (Agaricus bisporus); test: Reversible inhibition of mushroom tyrosinase at 0.781 to 3.125 uM
[7] = target: T2, Tyrosinase (Agaricus bisporus); test: Inhibition of mushroom tyrosinase using L-tyrosine as substrate at 0.78 uM by spectrophotometry; conditions: TDE = time-dependent effect
[8] = target: T2, Tyrosinase (Agaricus bisporus); test: Ratio of kojic acid IC50 to compound IC50 for mushroom tyrosinase using L-tyrosine as substrate

Ki (Tyrosinase [1]) [µM] | IC50 (Tyrosinase [2]) [µM] | Ki (Tyrosinase [3]) [µM] | inhibition [4] | IC50 (Tyrosinase [5]) [µM] | inhibition [6] | inhibition [7] | Ratio IC50 [8] | SMILES
2.07 | 20.4 | 8.15 | Dose-dependent effect | 4.96 | – | – | – | COc1ccc([C@@H]2CC(=O)c3c(O)c4c(c(CC=C(C)C)c3O2)OC(C)(C)C=C4)c(O)c1 [KHONKLONGINOL H]
0.48 | 19.5 | 8.16 | Dose-dependent effect | 1.01 | Active | tde | 10 | COc1ccc(CCC(=O)c2c(O)c(CC=C(C)C)c3c(c2O)CC(O)C(C)(C)O3)cc1 (centres undefined)
0.86 | 7.48 | 3.77 | Dose-dependent effect | 1.79 | – | – | – | CC(C)=CCc1c2c(c(O)c3c1O[C@H](c1ccc(O)cc1O)CC3=O)C=CC(C)(C)O2 [FLEMICHIN D]
0.63 | 5.22 | 2.74 | Dose-dependent effect | 1.28 | – | – | 10 | COc1ccc(CCC(=O)c2c(O)c3c(c4c2OC(C(C)(C)O)C4)OC(C)(C)C=C3)cc1 (centres undefined)
5.33 | 84.1 | 36.3 | Dose-dependent effect | 11.2 | – | – | – | CC(C)=CCc1c2c(c(O)c3c1O[C@H](c1ccc(O)cc1)CC3=O)C=CC(C)(C)O2 [LUPINIFOLIN]
9.36 | 32.6 | 13.3 | Dose-dependent effect | 18.4 | – | – | – | COc1ccc(CCC(=O)c2ccc3c(c2O)CC(O)C(C)(C)O3)cc1 (centres undefined)
